Results taken from patent publication US20230293539A1, “MLL1-WDR5 PROTEIN-PROTEIN INTERACTION INHIBITOR COMPOUNDS AND USES THEREOF” (HUYABIO International, LLC, priority 2022, published 2023).

Columns and labels:
MV 411 cells = experiment: Cell Viability Assay (CellTiter-Glo); assay type: cell-based; conditions: Homo sapiens, MV4-11, 72 hours, read-out: IC50 (anti-proliferative activity against leukemia cells)
Experimental: Cell lines and maintenance: All cell lines (MV 411) used for in vitro and in vivo studies were supplied as part of Wuxi AppTech cell bank. Cell lines were maintained in a medium supplemented with 10% heat inactivated fetal bovine serum at 37° C., in an atmosphere of 5% CO2, in air. The tumor cells were routinely subcultured twice weekly. The cells growing in an exponential growth phase were used for the in vitro cell potency and in vivo efficacy studies.
EXAMPLE 1: Cell Viability Assay: For cell cytotoxicity assays, 2000 cells/well were plated in 384-well plates. Twenty four hours after plating, cells were treated with inhibitors at the indicated compound concentrations. On Day 3 (72 hours), cells were lysed with CellTiter-Glo® Luminescent Cell Viability Assay reagent (Promega) and luminescence was read using the EnVision Multi-plate reader. To calculate IC50, a dose-response curve is generated using a nonlinear regression model with a sigmoidal dose response. The formula of surviving rate is shown below. IC50 values were automatically generated by GraphPad Prism 8.0. See FIG. 1A and FIG. 1B and Tables 3 and 4.

WDR5 = WDR5 (Homo sapiens, UniProt P61964); experiment: WDR5 TR-FRET Assay; assay type: binding; conditions: 5 nM WDR5 protein, 10 nM peptide, read-out: IC50 (MLL1-WDR5 PPI inhibitory activity)
Experimental: WDR5 TR-FRET Assay Procedure: Stock compounds were transferred to the assay plate by Echo Liquid Handler. Reactions were performed in the assay buffer (1×PBS, 300 mM NaCl, 0.5 mM TCEP, 0.1% CHAPS) containing 5 nM WDR5 protein, 10 nM peptide (Ac-ARTEVHLRKS-[Ahx-Ahx][C]-Alexa Fluor 488-NH2) and 0.25 nM Tb-anti His antibody (Tb-Ab) in 384-well white plate (PerkinElmer) with a final volume of 20 μl. Compounds were incubated with WDR5 protein for 30 min at room temperature. Plates were covered, protected from light and incubated for 60 min. at room temperature after adding the peptide and Tb-Ab. EnVision Multimode Plate Reader (PerkinElmer) was used for the TR-FRET assay with excitation wavelength at 340 nm and emission wavelength at 495 and 520 nm. The ratio of the 520/495 nm wavelengths were used to assess the degree of the FRET signal. IC50 was calculated by fitting the inhibition data using XLfit software to sigmoidal dose-response model.

[1] = Compound formulation stability assay; assay type: physicochemical; conditions: 10 mg/mL in 10% DMSO/10% solutol HS 15/80% water, 2-8° C.
Experimental: Compound formulation stability assay: Test articles were formulated in 10% DMSO/10% solutol HS 15/80% water and stored at 4° C. Formulated compounds were analyzed by a HPLC-UV method for actual concentrations and % remaining on Day 1, 4 and 7 after formulation to determine the stability of the formulated test article. The HPLC system was equipped with Shimadzu LC-20 high-performance liquid chromatograph, SIL-20AC auto sampler, LC-20AB pump and SPD-M20A detector. A Waters XBridge C18 (4.6*100 mm) column was applied for the separation. […]

Mouse PK (oral) = assay type: in vivo, C57/B16 mice; conditions: for Cmax: plasma; for AUC(0-t) / half-life: C57/B16, plasma
Experimental: Mouse PK: Animals were dosed with a single intravenous bolus or oral gavage administration in naïve C57/B16 mice (Beijing Vital River Laboratory Animal Co., LTD). Blood samples were collected at the respective sampling time points. The quantification of compound concentrations in mouse or rat plasma was quantified using LC-MS/MS method. Plasma concentration versus time data was analyzed by non-compartmental mode approaches using the WinNonlin software program (version 6.3 or above, Pharsight). Pharmacokinetic parameters, including C0 (initial concentration after drug administration), […], Vdss (volume of distribution), Cmax (maximum peak concentration of the drug), Tmax (time required to reach Cmax) T1/2 (time required for drug concentration to decrease by 50% after administration), AUC0-last (area under the concentration-time curve from dosing time t=0 to the time of the last measured concentration), AUC0-inf (total drug exposure across time), MRT0-last (mean residence time from dosing time t=0 to the time of the last measured concentration), MRT0-inf f (mean residence time of total drug exposure), bioavailability (%) (the percentage (or the fraction F) of an administered drug dose that reaches the systemic circulation) for IV and PO groups were calculated. See Table 7 and FIGS. 6A, 6B, 6C and 6D.

Liver S9 stability assay [2] = assay type: in vitro ADME, human; conditions: for half-life at 1 μM / microsomal CLint at 1 μM: Human liver S9; for % Remaining after 60 min incubation: Human liver S9, 1 μM, 5 mM GSH, 37° C.
Experimental: (§1) Liver S9 stability assay: Test compounds (1 μM) and positive control were incubated with 5 mM GSH and liver S9 (1 mg protein/ml) from multiple species (including human, monkey, dog, rat and mouse) at 37° C. at 0, 10, 30, and 60 minutes in duplicate. After adding the stop solution, 100 μL of supernatant were analyzed by LC-MS/MS. The % remaining of test compound, T1/2 (min), and CLint (μL/min/mg) were calculated and were reported.

Liver S9 stability assay [3] = assay type: in vitro ADME, rat; conditions: for half-life at 1 μM / microsomal CLint at 1 μM: Rat liver S9; for % Remaining after 60 min incubation: Rat liver S9, 1 μM, 5 mM GSH, 37° C.
Experimental: as §1

Liver S9 stability assay [4] = assay type: in vitro ADME, dog; conditions: for half-life at 1 μM / microsomal CLint at 1 μM: Dog liver S9; for % Remaining after 60 min incubation: Dog liver S9, 1 μM, 5 mM GSH, 37° C.
Experimental: as §1

Liver S9 stability assay [5] = assay type: in vitro ADME, mouse; conditions: for half-life at 1 μM / microsomal CLint at 1 μM: Mouse liver S9; for % Remaining after 60 min incubation: Mouse liver S9, 1 μM, 5 mM GSH, 37° C.
Experimental: as §1

[6] = WBS (whole blood stability) assay; assay type: in vitro ADME; conditions: for % Remaining after 60 min incubation: 2 μM, 37° C.
Experimental: WBS (whole blood stability) assay: The blood samples were collected freshly from multiple species including human, monkey, dog, rat and mouse. 2 μM of test compound and positive control were incubated with the whole blood at 37° C. at 0, 10, 30, 60, and 120 minutes in duplicate. After adding the stop solution, 200 μL of supernatant were analyzed by LC-MS/MS. The % remaining of test compound and T1/2 (min) were calculated and reported.

## CCN(CC)C(=O)c1cn(-c2cc(NC(=O)c3cc(N)c(F)c(C)c3Cl)c(N3C[C@@H](C)N(C)[C@@H](C)C3)cc2F)nn1 [HYBI-082, 1-(5-(5-amino-2-chloro-4-fluoro-3-methylbenzamido)-2-fluoro-4-((3S,5R)-3,4,5-trimethylpiperazin-1-yl)phenyl)-N,N-diethyl-1H-1,2,3-triazole-4-carboxamide]
MV 411 cells
  IC50: 7680 nM
WDR5
  IC50: 5.32 nM
[1]
  Accuracy % (Day 0): 96.3%
  Formulation Appearance (Day 0): clear
  Remaining % (Day 0): 100%
  Accuracy % (Day 1): 96.0%
  Formulation Appearance (Day 1): clear
  Remaining % (Day 1): 100%
  Accuracy % (Day 4): 99.3%
  Formulation Appearance (Day 4): clear
  Remaining % (Day 4): 103%
  Accuracy % (Day 7): 98.6%
  Formulation Appearance (Day 7): clear
  Remaining % (Day 7): 102%
Mouse PK (oral); 10 mpk
  F: 23.3%
Mouse PK (oral); 30 mpk
  F: 27.5%
Mouse PK (oral); C57/B16, 10 mg/kg, 10 mpk
  Cmax: 1.67 µM
Mouse PK (oral); C57/B16, 30 mg/kg, 30 mpk
  Cmax: 4.53 µM
Mouse PK (oral); 10 mg/kg, 10 mpk
  AUC(0-t): 2.22 µM·h
  half-life: 0.8 h
Mouse PK (oral); 30 mg/kg, 30 mpk
  AUC(0-t): 7.61 µM·h
  half-life: 2 h
Liver S9 stability assay [2]
  half-life at 1 μM: > 2.42 h
  microsomal CLint at 1 μM: < 4.8 µL/min/mg
  % Remaining after 60 min incubation: 107%
Liver S9 stability assay [3]
  half-life at 1 μM: > 2.42 h
  microsomal CLint at 1 μM: < 4.8 µL/min/mg
  % Remaining after 60 min incubation: 98.3%
Liver S9 stability assay [4]
  half-life at 1 μM: > 2.42 h
  microsomal CLint at 1 μM: < 4.8 µL/min/mg
  % Remaining after 60 min incubation: 87.3%
Liver S9 stability assay [5]
  half-life at 1 μM: > 2.42 h
  microsomal CLint at 1 μM: < 4.8 µL/min/mg
  % Remaining after 60 min incubation: 87.7%
[6]; Dog whole blood
  half-life at 2 μM: > 2.41 h
  % Remaining after 60 min incubation: 90.6%
[6]; Human whole blood
  half-life at 2 μM: 11.9 h
  % Remaining after 60 min incubation: 100%
[6]; Mouse whole blood
  half-life at 2 μM: > 2.41 h
  % Remaining after 60 min incubation: 82.4%
[6]; Rat whole blood
  half-life at 2 μM: > 2.41 h
  % Remaining after 60 min incubation: 99.6%

## C[C@H]1CN(c2cc(F)c(-c3cnc(N4CCOCC4)nc3)cc2Nc2ncnc(Cl)c2N)CCN1C [DDO-2213_020, (S)-6-chloro-N4-(2-(3,4-dimethylpiperazin-1-yl)-4-fluoro-5-(2-morpholinopyrimidin-5-yl)phenyl)pyrimidine-4,5-diamine]
MV 411 cells
  IC50: 5810 nM
WDR5
  IC50: 7.66 nM
[1]
  Accuracy % (Day 0): 89.8%
  Formulation Appearance (Day 0): clear solution
  Remaining % (Day 0): 100%
  Accuracy % (Day 1): 91.6%
  Formulation Appearance (Day 1): clear solution
  Remaining % (Day 1): 102%
  Accuracy % (Day 4): 92.0%
  Formulation Appearance (Day 4): clear solution
  Remaining % (Day 4): 100%
  Accuracy % (Day 7): 95.5%
  Formulation Appearance (Day 7): clear solution
  Remaining % (Day 7): 104%
Mouse PK (oral); 10 mpk
  F: 61.5%
Mouse PK (oral); 30 mpk
  F: 107.0%
Mouse PK (oral); C57/B16, 10 mg/kg, 10 mpk
  Cmax: 1.67 µM
Mouse PK (oral); C57/B16, 30 mg/kg, 30 mpk
  Cmax: 5.47 µM
Mouse PK (oral); 10 mg/kg, 10 mpk
  AUC(0-t): 7.1 µM·h
  half-life: 3.3 h
Mouse PK (oral); 30 mg/kg, 30 mpk
  AUC(0-t): 37 µM·h
  half-life: 2.7 h
Liver S9 stability assay [2]
  half-life at 1 μM: > 2.42 h
  microsomal CLint at 1 μM: < 4.8 µL/min/mg
  % Remaining after 60 min incubation: 92.1%
Liver S9 stability assay [3]
  half-life at 1 μM: > 2.42 h
  microsomal CLint at 1 μM: < 4.8 µL/min/mg
  % Remaining after 60 min incubation: 88.8%
Liver S9 stability assay [4]
  half-life at 1 μM: > 2.42 h
  microsomal CLint at 1 μM: < 4.8 µL/min/mg
  % Remaining after 60 min incubation: 78%
Liver S9 stability assay [5]
  half-life at 1 μM: > 2.42 h
  microsomal CLint at 1 μM: < 4.8 µL/min/mg
  % Remaining after 60 min incubation: 93.4%
[6]; Dog whole blood
  half-life at 2 μM: > 2.41 h
  % Remaining after 60 min incubation: 101%
[6]; Human whole blood
  half-life at 2 μM: 5 h
  % Remaining after 60 min incubation: 103%
[6]; Mouse whole blood
  half-life at 2 μM: > 2.41 h
  % Remaining after 60 min incubation: 104%
[6]; Rat whole blood
  half-life at 2 μM: > 2.41 h
  % Remaining after 60 min incubation: 1%
